Earlier results in patent US8333997B2, “Compositions for sustained release of nitric oxide, methods of preparing same and uses thereof” (priority 2006, dated 2012).

Assays:
[1] = system: Methicillin sensitive and Methicillin resistant species; conditions: against Methicillin sensitive and Methicillin resistant species
S. aureus = conditions: dose-response study on S. aureus

SMILES	efficacious concentration ranges [1] [mg/L]	concentration at which NO exhibits potent antimicrobial properties (S. aureus)
C/C(=C\C(=O)OCCCCCCCCC(=O)O)C[C@@H]1OC[C@H](C[C@@H]2O[C@H]2[C@@H](C)[C@H](C)O)[C@@H](O)[C@H]1O [Mupirocin]	25 to 256	–
[N]=O [NO, nitric oxide]	–	above 160 ppm
